Measured values: patent EP1972624A1, “Benzoxazinones and their use as ultraviolet light absorbers” (Clariant International Ltd., priority 2007, dated 2008)
Converted amounts (≈) assume the structure as drawn.

Key:
Type in all cases: physicochemical
[1] = Decomposition point (DP) by DSC; conditions: sealed aluminum pan, 40 to 400°C, 10°C/min, nitrogen
Description: The decomposition point (DP) is determined using a TA Instruments DSC Q100 apparatus, the compound being incorporated into a sealed aluminum pan. Analysis conditions are as following: Temperature range from 40 to 400°C, heating rate 10°C/min, nitrogen flow of 50 ml/min. Values are determined by single measurement.

[2] = UV/vis: λmax and ε in CH2Cl2 by UV spectrophotometer; conditions: dissolved in CH2Cl2
Description: λmax (lambda max) and ε (epsilon) values of the compounds of formula (I) are determined dissolved in CH2Cl2 using an UV spectrophotometer. These values are obtained by balancing the measurements performed on compound solutions at three different concentrations.

[3] = Solubility in organic solvents; conditions: for Solubility in Dowanol PMA: Dowanol PMA (CH3COO2CH(CH3)CH2OCH3)

CCCCCCCCOc1c(-c2nc3ccccc3c(=O)o2)sc2ccccc12 [(Ia)]
DP (decomposition point) [1]: 370 °C | εmax [2]: 26000 L/mol/cm | λmax [2]: 341 nm | Solubility in Dowanol PMA [3]: > 50 g/L | Solubility in xylene [3]: > 100 g/L

CCCCC(CC)COc1c(-c2nc3ccccc3c(=O)o2)sc2ccccc12 (stereo not drawn) [(Ib)]
DP (decomposition point) [1]: 385 °C | εmax [2]: 26200 L/mol/cm | λmax [2]: 341 nm | Solubility in Dowanol PMA [3]: > 50 g/L | Solubility in xylene [3]: > 100 g/L

CCCCCCCCCCCCOc1c(-c2nc3ccccc3c(=O)o2)sc2ccccc12 [(Ic)]
DP (decomposition point) [1]: 381 °C | εmax [2]: 21800 L/mol/cm | λmax [2]: 342 nm | Solubility in xylene [3]: 120 g/L (≈ 259 mM)

CCCCCCCCCCCCCCCCOc1c(-c2nc3ccccc3c(=O)o2)sc2ccccc12 [(Id)]
DP (decomposition point) [1]: 384 °C | εmax [2]: 31900 L/mol/cm | λmax [2]: 341 nm | Solubility in xylene [3]: 100 g/L (≈ 192 mM)

CCCCCCCCCCCc1c(-c2nc3ccccc3c(=O)o2)sc2ccc(C)cc12 [(Ie)]
DP (decomposition point) [1]: ≥ 400 °C | εmax [2]: 25900 L/mol/cm | λmax [2]: 343 nm | Solubility in xylene [3]: 40 g/L (≈ 89.4 mM)

CC(=O)Oc1c(-c2nc3ccccc3c(=O)o2)sc2ccccc12 [(If)]
DP (decomposition point) [1]: 351 °C | εmax [2]: 28700 L/mol/cm | λmax [2]: 337 nm | Solubility in xylene [3]: < 10 g/L

CCCC(=O)Oc1c(-c2nc3ccccc3c(=O)o2)sc2ccccc12 [(Ig)]
DP (decomposition point) [1]: 352 °C | εmax [2]: 26400 L/mol/cm | λmax [2]: 337 nm | Solubility in xylene [3]: < 10 g/L

CCCCC(CC)C(=O)Oc1c(-c2nc3ccccc3c(=O)o2)sc2ccccc12 (stereo not drawn) [(Ih)]
DP (decomposition point) [1]: 375 °C | εmax [2]: 24100 L/mol/cm | λmax [2]: 337 nm | Solubility in xylene [3]: 10 g/L (≈ 23.7 mM)

O=C(Oc1c(-c2nc3ccccc3c(=O)o2)sc2ccccc12)c1ccccc1 [(Ii)]
DP (decomposition point) [1]: ≥ 400 °C | εmax [2]: 25500 L/mol/cm | λmax [2]: 338 nm | Solubility in xylene [3]: < 10 g/L

O=c1oc(-c2sc3ccccc3c2Cl)nc2ccccc12 [(Ij)]
DP (decomposition point) [1]: ≥ 390 °C | εmax [2]: 29000 L/mol/cm | λmax [2]: 338 nm | Solubility in xylene [3]: < 5 g/L
